Assay results from patent US20230043863A1, “HETEROAROMATIC DERIVATIVES FOR USE AS REGULATOR, PREPARATION METHOD THEREFOR AND USE THEREOF” (JIANGSU HANSOH PHARMACEUTICAL GROUP CO., LTD., priority 2018, published 2023).

What was measured:
JAK1 = JAK1 (Homo sapiens, UniProt P23458); experiment: JAK kinase activity inhibition, TR-FRET (JAK1); format: biochemical; conditions: TR-FRET kinase assay
Description: (§1) Experimental objective: The objective of this test is to test the inhibitory effect of the compound on JAK kinase activity.
(§2) Experimental method: the fluorescence resonance energy transfer (TR-FRET) method was used to test the inhibitory effect of the compound on JAK kinase activity, and the half inhibitory concentration IC50 of the compound on JAK kinase activity was obtained.
(§3) Kinase reaction was carried out in a white 384-well plate (PerkinElmer). 1-5 μL of different concentrations of the compound diluted with DMSO and ddH2O was added into each well, and 1-5 μL of the corresponding solvent was added to the positive control wells, followed by addition of 0.1-20 nM JAK kinase solution diluted with 1-5 μL of kinase buffer (HEPES 50-250 mM, MgCl2 5-20 mM, etc.) was added to each well. 1-5 μL of kinase buffer was added to the negative control well. 1-5 μL of substrate mixture containing peptide substrate and ATP was added. The plate was incubated at room temperature for 0.5-5 hours. […], EDTA and detection solution containing labeled antibody was added, and then the plate was incubated at room temperature for another 1-24 hours. The fluorescence signal value at about 620 nm and 665 nm of each well was measured by BioTek Synergy H1 plate reader, and the inhibition rate was calculated by the fluorescence signal value. According to the inhibition rate of different concentrations, the IC50 of the compound was obtained by curve fitting.
(§4) The percentage inhibition data of the wells treated with the compound was calculated with the positive control wells (DMSO control wells) and negative control wells (no kinase added) on the plate {% inhibition rate=100-[(test compound value-negative control value)]/(Positive control value-negative control value)×100}. IC50 value was calculated by using GraphPad prism to fit the data of different concentrations and corresponding percentage inhibition rates to a 4-parameter non-linear logic formula.

TYK2 = TYK2 (Homo sapiens, UniProt P29597); experiment: JAK kinase activity inhibition, TR-FRET (TYK2); format: biochemical; conditions: TR-FRET kinase assay
Description: as §1, §2, §3, §4

[1] = test system: JAK-STAT signal pathway of U266 cells; experiment: Inhibition of cellular JAK-STAT signal pathway (STAT3 phosphorylation) in U266 cells; format: cell-based, human; conditions: Homo sapiens, U-266, INF-a 1000 U/mL stimulation
Description: The objective of the test is to test the inhibitory activity of the compound on the cellular JAK-STAT signaling pathway.
U266 cell line was used in this experiment, by activating the JAK-STAT signaling pathway through INF-a stimulation, the inhibitory activity of the compound on its downstream STAT3 phosphorylation was detected, and the half inhibitory concentration IC50 of the compound on the JAK-STAT signaling pathway activity was obtained.
3-12 μL of U266 cell line was spread into the 384-well detection plate, and the number of cells in each well was 100-300 K, followed by addition of 2 μL of the compound solution serially diluted. The plate was incubated for 2 hours with shaking at 350 rpm at room temperature. After 2 hours, 2 μL of INF-a with a final concentration of 1000 U/mL was added. The plate was shaken at room temperature for 15 minutes. 2-5 μL (5×) LANCE Ultra Lysis Buffer 2 solution was added and the plate was shaken at room temperature for 2 hours. After 2 hours, 5 μL of LANCE Ultra Eu-labeled Anti-STAT3 Antibody (PerkinElmer) with a final concentration of 0.5 nM and LANCE Ultra ULight-labeled Anti-STAT3 Antibody (PerkinElmer) with a final concentration of 5 nM were added, and the plate was incubated overnight at room temperature. The fluorescence signal value at 665 nm of each well was measured with the microplate reader, and the inhibition rate was calculated from the fluorescence signal value. According to the inhibition rate of different concentrations, the IC50 of the compound was obtained by curve fitting.
as §4

Sequence of JAK1 (P23458 whole entry): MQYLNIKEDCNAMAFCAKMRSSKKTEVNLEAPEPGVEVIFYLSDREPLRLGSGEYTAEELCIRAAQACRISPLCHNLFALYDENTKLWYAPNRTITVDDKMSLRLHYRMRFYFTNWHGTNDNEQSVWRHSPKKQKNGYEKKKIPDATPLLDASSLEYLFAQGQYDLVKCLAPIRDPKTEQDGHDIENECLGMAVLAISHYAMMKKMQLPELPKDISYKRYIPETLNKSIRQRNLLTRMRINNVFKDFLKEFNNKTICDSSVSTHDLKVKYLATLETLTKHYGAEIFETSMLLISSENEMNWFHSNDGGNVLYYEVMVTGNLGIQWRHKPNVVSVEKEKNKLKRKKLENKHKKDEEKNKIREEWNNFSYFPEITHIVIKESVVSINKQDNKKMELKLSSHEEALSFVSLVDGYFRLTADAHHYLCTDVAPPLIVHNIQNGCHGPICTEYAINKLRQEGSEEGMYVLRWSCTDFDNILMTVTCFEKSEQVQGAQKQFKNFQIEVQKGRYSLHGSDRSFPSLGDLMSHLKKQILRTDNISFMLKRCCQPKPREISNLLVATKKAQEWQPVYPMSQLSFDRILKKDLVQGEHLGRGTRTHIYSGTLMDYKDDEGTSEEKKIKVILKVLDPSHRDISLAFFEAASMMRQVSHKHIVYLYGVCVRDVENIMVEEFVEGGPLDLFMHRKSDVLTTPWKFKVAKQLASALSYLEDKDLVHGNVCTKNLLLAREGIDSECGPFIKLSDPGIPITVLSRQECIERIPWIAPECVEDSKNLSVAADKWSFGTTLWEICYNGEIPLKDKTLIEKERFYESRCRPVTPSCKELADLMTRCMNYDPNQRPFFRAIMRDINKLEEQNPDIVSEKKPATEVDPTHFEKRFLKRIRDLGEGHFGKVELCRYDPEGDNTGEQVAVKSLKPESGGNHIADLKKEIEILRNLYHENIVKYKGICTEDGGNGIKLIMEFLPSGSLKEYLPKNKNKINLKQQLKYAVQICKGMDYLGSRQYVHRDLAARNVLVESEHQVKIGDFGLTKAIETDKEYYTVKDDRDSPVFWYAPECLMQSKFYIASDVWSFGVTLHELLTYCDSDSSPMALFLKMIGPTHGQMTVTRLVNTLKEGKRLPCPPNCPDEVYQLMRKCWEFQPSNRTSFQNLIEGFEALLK
Sequence of TYK2 (P29597 whole entry): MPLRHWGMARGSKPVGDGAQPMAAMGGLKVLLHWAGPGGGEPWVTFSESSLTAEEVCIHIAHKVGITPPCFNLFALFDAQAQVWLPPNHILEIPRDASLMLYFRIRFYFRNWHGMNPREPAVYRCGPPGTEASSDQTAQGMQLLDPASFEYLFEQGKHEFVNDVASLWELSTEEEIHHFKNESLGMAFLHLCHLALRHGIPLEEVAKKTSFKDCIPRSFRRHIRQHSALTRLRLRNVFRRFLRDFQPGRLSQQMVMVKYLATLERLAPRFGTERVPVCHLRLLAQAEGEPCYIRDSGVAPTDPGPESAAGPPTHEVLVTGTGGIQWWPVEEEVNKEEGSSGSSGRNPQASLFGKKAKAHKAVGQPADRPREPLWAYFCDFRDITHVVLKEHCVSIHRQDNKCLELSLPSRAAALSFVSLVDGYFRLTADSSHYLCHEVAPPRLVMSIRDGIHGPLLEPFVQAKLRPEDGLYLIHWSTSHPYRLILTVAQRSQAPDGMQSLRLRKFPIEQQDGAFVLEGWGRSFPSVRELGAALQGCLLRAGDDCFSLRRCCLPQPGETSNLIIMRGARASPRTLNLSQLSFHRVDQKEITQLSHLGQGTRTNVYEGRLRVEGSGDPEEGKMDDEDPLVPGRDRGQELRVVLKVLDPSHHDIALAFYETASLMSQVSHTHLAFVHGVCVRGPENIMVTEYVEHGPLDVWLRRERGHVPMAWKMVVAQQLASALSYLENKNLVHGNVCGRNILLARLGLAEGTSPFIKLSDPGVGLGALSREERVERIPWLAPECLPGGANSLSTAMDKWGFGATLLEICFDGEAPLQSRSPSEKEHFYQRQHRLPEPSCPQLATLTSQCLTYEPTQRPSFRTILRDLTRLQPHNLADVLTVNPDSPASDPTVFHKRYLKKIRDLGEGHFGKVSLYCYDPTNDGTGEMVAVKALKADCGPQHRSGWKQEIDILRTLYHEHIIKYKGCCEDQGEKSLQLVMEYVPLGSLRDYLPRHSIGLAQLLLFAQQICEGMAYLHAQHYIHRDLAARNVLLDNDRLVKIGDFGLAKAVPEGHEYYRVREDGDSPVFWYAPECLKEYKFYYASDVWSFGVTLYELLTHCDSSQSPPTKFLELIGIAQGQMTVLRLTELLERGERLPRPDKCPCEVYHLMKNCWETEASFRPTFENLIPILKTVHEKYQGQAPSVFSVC

| SMILES | IC50 (JAK1) | IC50 (TYK2) | IC50 [1] |
| --- | --- | --- | --- |
| CCc1cc(Nc2cc3ncccc3c(N[C@@H]3C[C@H]4CC[C@@H](C3)N4CCC#N)n2)n[nH]1 [Embodiment 11, 3-((3-exo)-3-((7-((5-ethyl-1H-pyrazol-3-yl)amino)-1,6-diazanaphthalen-5-yl)amino)-8-azabicyclo[3.2.1]oct-8-yl)propionitrile] | 0.3 nM | 9.13 nM | 4.77 nM |
| Cc1cc(Nc2nc(N[C@@H]3C[C@H]4CC[C@@H](C3)N4CCC#N)nc3scnc23)n[nH]1 [Embodiment 66, 3-((3-exo)-3-((7-((5-methyl-1H-pyrazol-3-yl)amino)thiazolo[5,4-d]pyrimidin-5-yl)amino)-8-azabicyclo[3.2.1]oct-8-yl)propionitrile] | 3.02 nM | 1.49 nM | 4.06 nM |
| Cc1cc(Nc2nc(N[C@@H]3C[C@H]4CC[C@@H](C3)N4CCC#N)c3cccn3n2)n[nH]1 [Embodiment 72, 3-((3-exo)-3-((2-((5-methyl-1H-pyrazol-3-yl)amino)pyrrolo[2,1-f][1,2,4]triazin-4-yl)amino)-8-azabicyclo[3.2.1]oct-8-yl)propionitrile] | 4.32 nM | 16 nM | 5.39 nM |
| Cc1cc(Nc2cc3nccnc3c(N[C@@H]3C[C@H]4CC[C@@H](C3)N4CCC#N)n2)n[nH]1 [Embodiment 88, 3-((3-exo)-3-((7-((5-methyl-1H-pyrazol-3-yl)amino)pyrido[3,4-b]pyrazin-5-yl)amino)-8-azabicyclo[3.2.1]oct-8-yl)propionitrile] | 1.75 nM | 3.53 nM | 3.1 nM |
| Cc1cc(Nc2cc3ncccc3c(N(C)[C@@H]3C[C@H]4CC[C@@H](C3)N4CCC#N)n2)n[nH]1 [Embodiment 111, 3-((3-exo)-3-(methyl(7-((5-methyl-1H-pyrazol-3-yl)amino)-1,6-diazanaphthalen-5-yl)amino)-8-azabicyclo[3.2.1]oct-8-yl)propionitrile] | 5.69 nM | 1.63 nM | 2.93 nM |
| N#CCCN1[C@@H]2CCC[C@H]1C[C@H](Nc1nc(Nc3ncc(CO)s3)cc3ncccc13)C2 [Embodiment 163, 3-((3-exo)-3-((7-((5-(hydroxymethyl)thiazol-2-yl)amino)-1,6-diazanaphthalen-5-yl)amino)-9-azabicyclo[3.3.1]non-9-yl)propionitrile] | 0.45 nM | 24.4 nM | 52.6 nM |
| O=C(C(F)F)N1[C@@H]2CC[C@H]1C[C@H](Nc1nc(Nc3ncc(CO)s3)cc3ncccc13)C2 [Embodiment 166, 2,2-difluoro-1-((3-exo)-3-((7-((5-(hydroxymethyl)thiazol-2-yl)amino)-1,6-diazanaphthalen-5-yl)amino)-8-azabicyclo[3.2.1]oct-8-yl)ethane-1-one] | 0.19 nM | 9.31 nM | 26.7 nM |
| OCc1cnc(Nc2cc3ncccc3c(N[C@@H]3C[C@H]4CC[C@@H](C3)N4CCF)n2)s1 [Embodiment 167, (2-((5-(((3-exo)-8-(2-fluoroethyl)-8-azabicyclo[3.2.1]oct-3-yl)amino)-1,6-diazanaphthalen-7-yl)amino)thiazol-5-yl)methanol] | 2.55 nM | 7.28 nM | 14.8 nM |
| Cc1cc(Nc2nc(N[C@@H]3C[C@H]4CC[C@@H](C3)N4CCC#N)nc3cccnc23)n[nH]1 [Embodiment 174, 3-((3-exo)-3-((4-((5-methyl-1H-pyrazol-3-yl)amino)pyrido[3,2-d]pyrimidin-2-yl)amino)-8-azabicyclo[3.2.1]oct-8-yl)propionitrile] | 2.73 nM | 1.88 nM | 0.42 nM |
| Cc1cc(Nc2nc(N[C@@H]3C[C@H]4CC[C@@H](C3)N4S(=O)(=O)N3CC(C#N)C3)nc3cc(F)ccc23)n[nH]1 [Embodiment 215, 1-(((3-exo)-3-((7-fluoro-4-((5-methyl-1H-pyrazol-3-yl)amino)quinazolin-2-yl)amino)-8-azabicyclo[3.2.1]oct-8-yl)sulfonyl)azetindin-3-formonitrile] | 0.12 nM | 0.27 nM | 24.1 nM |
